The values that follow come from PubChem BioAssay AID2305 (GlaxoSmithKline (GSK), 2010).

The IC50 is the concentration that gives 50% inhibition.

The experiment has as its system P. falciparum 3D7 growth, pLDH absorbance. Put plainly: P. falciparum 3D7 growth inhibition, dose response, strain 3D7 (AID 2305).

Consider `COc1ccc(Br)cc1/C=C/C(=O)Nc1ccc(C2CCCN(C)C2)cc1` (centres undefined), for which the IC50 amounted to 630 nM.
The value for `Cc1[nH]c(C)c(-c2ccc(Oc3cc(Cl)cc(Cl)c3)cc2)c(=O)c1Br` was 240 nM; that for `CC[C@H](C)CNCc1ccc(OCc2cccc(COc3ccc(CNC[C@@H](C)CC)cc3I)c2)c(I)c1` was 400 nM.
In the case of `COc1ccc(Nc2nccc(NCCNC(=O)c3cc4ccccc4s3)n2)cc1`, the concentration for half-maximal inhibition (IC50) turned out to be 1020 nM. This IC50 is about 2.5-fold higher than that of the compound before.
To `COc1cc2c(cc1O)[C@@H]1[C@H](O)[C@@H](O)C=C3CCN(C2)[C@H]31` belongs 990 nM.
As for `COc1cc(Cc2cnc(N)nc2N)cc(OCCCCCCN2C(=O)c3ccccc3C2=O)c1OC`, the concentration for half-maximal inhibition (IC50) worked out at 1100 nM.
`COc1ccc(-c2cc(NCc3ccc(-n4ccnc4)cc3)nc(Nc3ccccc3)n2)cc1`: the 50% inhibitory concentration (IC50) was determined as 970 nM.
To `O=C1Nc2cccc3c2C1(CCCCN1CC=C(c2c[nH]c4ncccc24)CC1)CCC3` (centres undefined) belongs 400 nM; to `COc1cccc(-c2c(C#N)c(N)nc3c2c(C)nn3-c2ccccc2)c1O`, 280 nM.
Compound `CCc1cn2c3c(cc(C(=O)N[C@@H](Cc4ccccc4)[C@H](O)CNCc4ccc(C)cc4)cc13)N(C)S(=O)(=O)CC2` registered an IC50 of 550 nM. This IC50 is about 2-fold higher than that of the compound before.
In the case of `COc1cc2c(cc1C(F)(F)F)N(C(=O)Nc1cc(F)cc(-c3cncnc3)c1)CC2`, the half-inhibitory concentration (IC50) worked out at 500 nM.
As for `CN(CCCCNC(=O)c1ccc(-c2ccccc2)cc1)C1CCc2c(O)cccc2C1` (centres undefined), the 50% inhibitory concentration (IC50) amounted to 720 nM.
The value for `Cc1cc(C(F)(F)F)n2nc(C(=O)N(Cc3cncn3Cc3cccc(F)c3)CC3CC3)cc2n1` was 740 nM.
The value for `COc1cc(Cc2cnc(N)nc2N)cc(OCCCCNS(=O)(=O)C(F)(F)F)c1OC` was 1040 nM; that for `O=C(Cc1cc(=O)oc2cc(O)ccc12)NC1CCC(CN2CCC(c3c[nH]c4ccccc34)CC2)CC1` (centres undefined) was 1130 nM.
As for `O=C(Nc1ccc(-c2ccccc2)cc1)Nc1cccc(Cn2ncc(N3CCNCC3)c(Cl)c2=O)c1`, the IC50 amounted to 460 nM.
Consider `COC(=O)c1ccc(-c2ccc(C(=O)NCC3CCN(c4nc(N)c5cc(OC)c(OC)cc5n4)CC3)cc2)cc1`, for which the concentration for half-maximal inhibition (IC50) worked out at 180 nM. Against the preceding compound, the IC50 is about 2.6-fold lower.
With `COc1ccc(CCN2CCC(CN(C)Cc3cnn(-c4ccccc4)c3)CC2)cc1`, the half-inhibitory concentration (IC50) was 1160 nM.
Compound `O=C(Nc1cccc(C(F)(F)F)c1)c1cccc(S(=O)(=O)NC2CCN(CC3CCCCC3)C2)c1` (centres undefined) registered an IC50 of 590 nM.
Compound `Cc1noc(C)c1-c1ccc(C(=C2CCCCCCC2)c2ccc(O)cc2)cc1` returned an IC50 of 1050 nM.
The compound `NC(N)=NN=CC(=O)Nc1ccc(Cl)c(C(F)(F)F)c1` displayed a half-inhibitory concentration (IC50) of 890 nM. The IC50 values of the last two compounds are within 1.5-fold of each other.
The value for `COc1cccc(CN2CCN(C(c3ccccc3)c3ccccc3)CC2)c1O` was 780 nM.
On to `CCC(NCc1ccc(-c2cncc(C(=O)NCC(C)C)c2)cc1)c1ccccc1` (centres undefined), for which the half-inhibitory concentration (IC50) amounted to 940 nM. The IC50 values of the last two compounds are within 1.5-fold of each other.
`O=C(Nc1ccc(C(F)(F)F)cc1)c1ccc(S(=O)(=O)NCC2CCCN(CC3CCCCC3)C2)cc1` (centres undefined) displayed an IC50 of 150 nM.
For `CC(C)CCN1CCC(Oc2ccc(NC(=O)c3cccs3)cc2Cl)C1` (centres undefined), the IC50 came out at 1100 nM.
The value for `O=C(/C=C/c1ccc(Cl)c(Cl)c1)NCCCCCCN1CCN(C(=O)Nc2ccc(C(F)(F)F)cc2)CC1` was 400 nM; that for `c1ccc2cc3c(NCCN4CCOCC4)ccnc3cc2c1` was 170 nM.
On to `CN1CCC(C(=O)N(Cc2ccc(-c3ccc(CNCCc4ccccc4)cn3)cc2)Cc2cccc(F)c2)CC1`, for which the concentration for half-maximal inhibition (IC50) was determined as 940 nM. This IC50 is about 5.5-fold higher than that of the compound before.
To `COc1ccc(NC(=S)NC(NC(=O)CF)C(Cl)(Cl)Cl)cc1[N+](=O)[O-]` (centres undefined) belongs 480 nM.
The value for `CCCc1ccc(S(=O)(=O)NC2CCN(c3ccnc(Nc4ccc(F)cc4)n3)C2)cc1` (centres undefined) was 1010 nM; that for `COC(=O)c1cc(OC)c(OC)cc1NC(=O)NC12CC3CC(CC(C3)C1)C2` was 880 nM; that for `CC(=O)NC(c1cccs1)c1cc(Cl)c2cccnc2c1O` (centres undefined) was 320 nM.
On to `CCCOc1ccc2ccccc2c1CNCCCCCCNCc1c(OCCC)ccc2ccccc12`, for which the 50% inhibitory concentration (IC50) worked out at 790 nM.
Compound `Cn1cncc1C(=O)Nc1cccc(-c2ccc(-c3nc4ccc(C(F)(F)F)cc4[nH]3)cc2)c1` registered a concentration for half-maximal inhibition (IC50) of 510 nM. Against the preceding compound, the IC50 is about 1.5-fold lower.
On to `CC(=O)N(Cc1ccc(CC(C)NCCc2cccc(Cl)c2)cc1)Cc1ccc(CC(C)NCCc2cccc(Cl)c2)cc1` (centres undefined), for which the 50% inhibitory concentration (IC50) came to 780 nM.
`NC(=NCCc1ccccc1Cl)c1ccc2ccccc2c1` registered an IC50 of 1630 nM.
The value for `N#CCCn1nc(-c2ccc(Cl)cc2)c2c(c1=O)CCCC2` was 890 nM.
The value for `O=C(Nc1ccc(OC2CCN(Cc3ccsc3)CC2)c(Cl)c1)c1cccs1` was 600 nM; that for `CCC[C@@H]([C@@H](CC(C)C)C(=O)N[C@@H](CCCCNC(=O)OCc1ccccc1)C(=O)Nc1ncccn1)N(O)C=O` was 60 nM.
To `O=C(Nc1ccc(-c2nc3ccccc3[nH]2)cc1)C1CCCN(C2CCC2)C1` (centres undefined) belongs 1350 nM; to `c1ccc(OCCCCN2CCCCC2)cc1`, 540 nM.
`CCN1CCC(N(CCCCCCc2ccc(C(F)(F)F)cc2)C(=O)Cn2c(CCc3cccc(F)c3F)cc(=O)c3ccccc32)CC1` returned a concentration for half-maximal inhibition (IC50) of 930 nM. Against the preceding compound, the IC50 is about 1.7-fold higher.
For the compound `CC(C)NCc1cccc(-c2ccc(NS(=O)(=O)c3cccc4cccnc34)cc2)c1`, the half-inhibitory concentration (IC50) was 1080 nM. The IC50 values of the last two compounds are within 1.5-fold of each other.
On to `OC1CCC(Nc2ccc3ncc(-c4ccc5ccccc5c4)n3n2)CC1` (centres undefined), for which the half-inhibitory concentration (IC50) turned out to be 980 nM. This IC50 and that of the compound before are within 1.5-fold of each other.
`CCN(CC)C(C)(C)CN(Cc1ccc(-c2ccc(C(F)(F)F)cc2)cc1)C(=O)Cn1c(CCc2cccc(F)c2F)nc(=O)c2ccccc21` returned a half-maximal inhibitory concentration (IC50) of 960 nM.
The value for `CC(C)Cn1c(Sc2ccc(C#N)c([N+](=O)[O-])c2)nnc1-c1ccccc1Cl` was 900 nM.
Turning to `O=C(/C=C/c1cccc(Cl)c1)Nc1ccc2nc(CN3CCCC3)ccc2c1`, the half-maximal inhibitory concentration (IC50) was found to be 260 nM.
The value for `CC(=O)c1cccc2cc(C(=O)NC3CCC(CCN4CCc5ccc(C#N)cc5C4)CC3)[nH]c12` (centres undefined) was 790 nM.
The value for `CCN(CC)CCN(Cc1ccc(-c2ccc(C(F)(F)F)s2)cc1)C(=O)Cn1c(CCc2cccc(F)c2F)nc(=O)c2ccccc21` was 990 nM.
The value for `CNC(=O)COc1cc(C)c(C2CCN(CCCCNC(=O)c3ccc(-c4ccc(C(F)(F)F)cc4)cc3)CC2)cc1C` was 870 nM; that for `O=C(NCCCCCN1CCC(c2c[nH]c3ccccc23)CC1)Nc1ccc(I)c(Cl)c1` was 970 nM; that for `CCC[C@@H]([C@@H](CC(C)C)C(=O)N[C@@H](CCCNc1nccc(C(F)(F)F)n1)C(=O)Nc1nccs1)N(O)C=O` was 370 nM.
`CC[C@H]1CN2CC[C@H]1C[C@H]2[C@H](O)c1cc(-c2cccc(C)c2)nc2ccc(OC)cc12` displayed a half-inhibitory concentration (IC50) of 160 nM. This IC50 is about 2.3-fold lower than that of the compound before.
The value for `CC1CCc2c(C(=O)Nc3c(F)cc(F)cc3Br)csc2C1` (centres undefined) was 750 nM; that for `CCN(CC)CCCN1CCN(C(=O)c2cccc(-c3noc(C(F)(F)F)n3)c2)CC1` was 150 nM; that for `COc1cc(NC(=O)c2cc([N+](=O)[O-])ccc2NC(=O)CNC2CCCC(C)C2C)cc(OC)c1` (centres undefined) was 1040 nM.
`Cc1cc(NC(=O)N=C(N)N)ccc1Cl` displayed a 50% inhibitory concentration (IC50) of 700 nM.
To `COc1ccc2c(NN=Cc3ccc(OC)c4ccccc34)cc(C)nc2c1` belongs 600 nM; to `O=C(NCCc1ccccc1)N(Cc1ccc(-c2cccc(CN3CCNCC3)c2)cc1)C1CCN(Cc2ccccc2)CC1`, 1360 nM; to `Cc1cc(N2CCOCC2)nc(Nc2ccc(NC(=O)c3cccc4ccccc34)cc2)n1`, 1300 nM.
Regarding `COc1ccc(Nc2nc(NN=Cc3cc(Br)ccc3O)nc(Nc3ccc([N+](=O)[O-])cc3)n2)cc1`, the IC50 was determined as 220 nM.
For the compound `Cc1cccc2[nH]c(-c3ccc(-c4cccc(CNCc5ccccc5)c4)cc3)nc12`, the IC50 came to 250 nM.
Take `Cc1cccc2[nH]c(-c3ccc(-c4ccc(CN5CCC(C(N)=O)CC5)cc4)s3)nc12`: the IC50 was 910 nM.
To `Cc1nc(-c2cccc(C(=O)NC3CCC(CCN4CCc5ccc(-c6cccnc6)cc5CC4)CC3)c2)no1` (centres undefined) belongs 760 nM; to `CC(Cc1ccc(OCCCCOc2ccccc2)cc1)NCCCN1CCOCC1` (centres undefined), 720 nM.
The value for `COc1cc(CNC2Cc3ccccc3C2)ccc1Oc1ccc2nc[nH]c2c1` was 950 nM; that for `Cc1cc(N2CCCC2)nc(Nc2ccc(NC(=O)C(C)Oc3ccccc3)cc2)n1` (centres undefined) was 1140 nM.
The value for `CCCCCCNC(=O)C1Cc2c([nH]c3ccc(F)cc23)C2(CCN(Cc3ccccc3)CC2)N1` (centres undefined) was 870 nM.
`CC(=O)Nc1ccc(C(=O)Nc2cccc(-c3ccc(-c4nc5ccccc5[nH]4)cc3)c2)cn1` displayed an IC50 of 210 nM.
`CCOC(=O)c1cn(CC)c2cc(O[C@H]3CCN(C(=O)OC(C)(C)C)C3)ccc2c1=O` had an IC50 of 550 nM. Against the preceding compound, the IC50 is about 2.6-fold higher.
To `O=C(Cn1c(SCc2cccc(F)c2F)cc(=O)c2ccccc21)N(CCc1cnc[nH]1)Cc1ccc(-c2ccc(C(F)(F)F)cc2)cc1` belongs 800 nM; to `O=C(Nc1cccc(-c2csc(NC(=O)c3ccc4ccccc4c3)n2)c1)c1ccc2ccccc2c1`, 710 nM; to `Cc1nc(-c2ccc(-c3ccc(NC(=O)c4coc5ccc(N6C[C@@H](C)N(C)[C@@H](C)C6)cc45)cc3)c(C)c2)no1`, 770 nM.
To `CN1CCCc2ccc(NC(=O)C=Cc3ccc(-c4ccc(F)cc4F)o3)cc2C1` belongs 520 nM; to `O=C(/C=C/c1ccc(Cl)c(Cl)c1)NC1CCN(CCCNC(=O)c2cccc(Cl)c2)CC1`, 660 nM.
Compound `CC(C)(CNC(=O)[C@H]1CCCN1)c1nc(-c2ccc(Cl)c(O)c2)c(-c2ccncc2)[nH]1` showed an IC50 of 1270 nM. Compared with the last compound, the IC50 is about 1.9-fold higher.
With `Cc1cc(N2C(N)=NC(N)=NC2(C)C)ccc1Cl`, the IC50 worked out at 20 nM. Against the preceding compound, the IC50 is about 64-fold lower.
The value for `Nc1cccc(CNCc2cccc(-c3ccc(-c4nc5ccc(C(F)(F)F)cc5[nH]4)cc3)c2)c1` was 360 nM; that for `Fc1ccc([C@H]2N=C(SCCSC3=N[C@H](c4ccc(F)cc4)[C@H](c4ccc(F)cc4)N3)N[C@H]2c2ccc(F)cc2)cc1` was 910 nM; that for `CC(=O)Nc1cccc(C(=O)Nc2cccc(-c3cccc(-c4nc5ccc(F)cc5[nH]4)c3)c2)c1` was 550 nM.
To `CCCc1cn2c3c(cc(C(=O)N[C@@H](Cc4ccccc4)[C@H](O)CNC4CCCCC4)cc13)N(C)S(=O)(=O)CC2` belongs 70 nM.
As to `FC(F)(F)c1cccc(Nc2nc3nonc3nc2NC2C3CC4CC(C3)CC2C4)c1` (centres undefined), the IC50 was 660 nM. This IC50 is about 9.4-fold higher than that of the compound before.
Consider `O=C(/C=C/c1ccc(Cl)c(Cl)c1)NCCCCCN1CCN(C(=O)Nc2cccc(F)c2)CC1`, for which the IC50 stood at 870 nM.
The value for `COc1cc(NC(=O)N2CCOC(CCN3CCC(c4ccccc4)CC3)(c3ccc(Cl)c(Cl)c3)C2)cc(OC)c1` (centres undefined) was 290 nM.
